# Laboratory results reported in PubChem BioAssay AID1259407 (Chemical Carcinogenesis Research Information System (CCRIS), 2018).
# Calls of active or inactive are those of the source. The rule behind the calls is not given here.
# Tested on: CCRIS mutagenicity, Ames/micronucleus/aberration tests
# Assay: CCRIS mutagenicity studies
# [1] = Test System: AMES SALMONELLA TYPHIMURIUM, Strain/Indicator: TA97, Metabolic Activation: HAMSTER, LIVER, S-9, AROCLOR 1254 (10%), Method: PREINCUBATION
# [2] = Test System: AMES SALMONELLA TYPHIMURIUM, Strain/Indicator: TA97, Metabolic Activation: NONE, Method: PREINCUBATION
# [3] = Test System: AMES SALMONELLA TYPHIMURIUM, Strain/Indicator: TA98, Metabolic Activation: HAMSTER, LIVER, S-9, AROCLOR 1254 (10 OR 30%), Method: PREINCUBATION
# [4] = Test System: AMES SALMONELLA TYPHIMURIUM, Strain/Indicator: TA98, Metabolic Activation: NONE, Method: PREINCUBATION
# [5] = Test System: AMES SALMONELLA TYPHIMURIUM, Strain/Indicator: TA100, Metabolic Activation: HAMSTER, LIVER, S-9, AROCLOR 1254 (10 OR 30%), Method: PREINCUBATION
# [6] = Test System: AMES SALMONELLA TYPHIMURIUM, Strain/Indicator: TA100, Metabolic Activation: NONE, Method: PREINCUBATION
# [7] = Test System: AMES SALMONELLA TYPHIMURIUM, Strain/Indicator: TA100, Metabolic Activation: RAT, LIVER, S-9, AROCLOR 1254 (10 OR 30%), Method: PREINCUBATION
# [8] = Test System: AMES SALMONELLA TYPHIMURIUM, Strain/Indicator: TA1535, Metabolic Activation: NONE, Method: PREINCUBATION
# [9] = Test System: AMES SALMONELLA TYPHIMURIUM, Strain/Indicator: TA1537, Metabolic Activation: NONE, Method: PREINCUBATION
# [10] = Test System: AMES SALMONELLA TYPHIMURIUM, Strain/Indicator: TA97, Metabolic Activation: RAT, LIVER, S-9, AROCLOR 1254 (10 OR 30%), Method: PREINCUBATION
# [11] = Test System: AMES SALMONELLA TYPHIMURIUM, Strain/Indicator: TA98, Metabolic Activation: RAT, LIVER, S-9, AROCLOR 1254 (10 OR 30%), Method: PREINCUBATION
# [12] = Test System: AMES SALMONELLA TYPHIMURIUM, Strain/Indicator: TA1535, Metabolic Activation: HAMSTER, LIVER, S-9, AROCLOR 1254 (10 OR 30%), Method: PREINCUBATION
# [13] = Test System: AMES SALMONELLA TYPHIMURIUM, Strain/Indicator: TA1535, Metabolic Activation: RAT, LIVER, S-9, AROCLOR 1254 (10 OR 30%), Method: PREINCUBATION
smiles,measurement,setting,value
O=C(NO)c1ccccc1,mutagenic call,[1],active; positive
same,mutagenic call,[2],active; positive
same,mutagenic call,"Test System: AMES SALMONELLA TYPHIMURIUM, Strain/Indicator: TA97, Metabolic Activation: RAT, LIVER, S-9, AROCLOR 1254 (10%), Method: PREINCUBATION",active; positive
same,mutagenic call,[3],active; positive
same,mutagenic call,[4],active; positive
same,mutagenic call,"Test System: AMES SALMONELLA TYPHIMURIUM, Strain/Indicator: TA98, Metabolic Activation: RAT, LIVER, S-9, AROCLOR 1254 (10%), Method: PREINCUBATION",active; positive
same,mutagenic call,"Test System: AMES SALMONELLA TYPHIMURIUM, Strain/Indicator: TA98, Metabolic Activation: RAT, LIVER, S-9, AROCLOR 1254 (30%), Method: PREINCUBATION",active; positive
same,mutagenic call,[5],active; positive
same,mutagenic call,[6],active; positive
same,mutagenic call,[7],active; positive
same,mutagenic call,"Test System: AMES SALMONELLA TYPHIMURIUM, Strain/Indicator: TA1535, Metabolic Activation: HAMSTER, LIVER, S-9, AROCLOR 1254 (10%), Method: PREINCUBATION",active; positive
same,mutagenic call,[8],inactive; negative
same,mutagenic call,"Test System: AMES SALMONELLA TYPHIMURIUM, Strain/Indicator: TA1535, Metabolic Activation: RAT, LIVER, S-9, AROCLOR 1254 (10%), Method: PREINCUBATION",active; positive
same,mutagenic call,"Test System: AMES SALMONELLA TYPHIMURIUM, Strain/Indicator: TA1537, Metabolic Activation: HAMSTER, LIVER, S-9, AROCLOR 1254 (10%), Method: PREINCUBATION",active; positive
same,mutagenic call,[9],active; positive
same,mutagenic call,"Test System: AMES SALMONELLA TYPHIMURIUM, Strain/Indicator: TA1537, Metabolic Activation: RAT, LIVER, S-9, AROCLOR 1254 (10%), Method: PREINCUBATION",active; positive
C1CS1,mutagenic call,"Test System: AMES SALMONELLA TYPHIMURIUM, Strain/Indicator: TA98, Metabolic Activation: HAMSTER, LIVER, S-9, AROCLOR 1254, Method: PREINCUBATION",inactive; negative
same,mutagenic call,[4],inactive; negative
same,mutagenic call,"Test System: AMES SALMONELLA TYPHIMURIUM, Strain/Indicator: TA98, Metabolic Activation: RAT, LIVER, S-9, AROCLOR 1254, Method: PREINCUBATION",inactive; negative
same,mutagenic call,"Test System: AMES SALMONELLA TYPHIMURIUM, Strain/Indicator: TA100, Metabolic Activation: HAMSTER, LIVER, S-9, AROCLOR 1254, Method: PREINCUBATION",active; positive
same,mutagenic call,[6],active; positive
same,mutagenic call,"Test System: AMES SALMONELLA TYPHIMURIUM, Strain/Indicator: TA100, Metabolic Activation: RAT, LIVER, S-9, AROCLOR 1254, Method: PREINCUBATION",active; positive
same,mutagenic call,"Test System: MOUSE LYMPHOMA, Strain/Indicator: L5178Y (TK+/TK-), Metabolic Activation: NONE, Method: SUSPENSION/PLATE",active; positive. reevaluation of results: positive
same,mutagenic call,"Test System: MOUSE LYMPHOMA, Strain/Indicator: L5178Y (TK+/TK-), Metabolic Activation: RAT, LIVER, S-9, AROCLOR 1254, Method: SUSPENSION/PLATE",active; positive. reevaluation of results: positive
CC(=O)Nc1ccc(C)c(N)c1,mutagenic call,[4],inactive; negative
same,mutagenic call,"Test System: AMES SALMONELLA TYPHIMURIUM, Strain/Indicator: TA98, Metabolic Activation: RAT, LIVER, S-9, PHENOBARBITAL AND 5,6-BENZOFLAVONE, Method: PREINCUBATION",active; positive
Cl[C@@H]1C2(Cl)C3C4[C@@H]5O[C@@H]5[C@H]5C3[C@@](Cl)(C2(Cl)Cl)[C@]1(Cl)[C@@H]45 (some centres not stated),mutagenic call,[1],inactive; negative
same,mutagenic call,"Test System: AMES SALMONELLA TYPHIMURIUM, Strain/Indicator: TA97, Metabolic Activation: HAMSTER, LIVER, S-9, AROCLOR 1254 (30%), Method: PREINCUBATION",active; positive
same,mutagenic call,[2],inactive; negative
same,mutagenic call,[10],inactive; negative
same,mutagenic call,[3],inactive; negative
same,mutagenic call,[4],inactive; negative
same,mutagenic call,[11],inactive; negative
same,mutagenic call,[5],inactive; negative
same,mutagenic call,[6],inactive; negative
same,mutagenic call,[7],inactive; negative
same,mutagenic call,[12],inactive; negative
same,mutagenic call,[8],inactive; negative
same,mutagenic call,[13],inactive; negative
O=C1NC2(CCCCC2)C(=O)N1CCN1CC1,mutagenic call,"Test System: AMES SALMONELLA TYPHIMURIUM, Strain/Indicator: TA1535, Metabolic Activation: NONE, Method: STANDARD PLATE",active; positive
CN(Cc1cnc2nc(N)nc(N)c2n1)c1c(Cl)cc(C(=O)N[C@@H](CCC(=O)O)C(=O)O)cc1Cl,mutagenic call,"Test System: AMES SALMONELLA TYPHIMURIUM, Strain/Indicator: TA97, Metabolic Activation: HAMSTER, LIVER, S-9, AROCLOR 1254 (10 OR 30%), Method: PREINCUBATION",inactive; negative
same,mutagenic call,[2],inactive; negative
same,mutagenic call,[10],inactive; negative
same,mutagenic call,[3],inactive; negative
same,mutagenic call,[4],inactive; negative
same,mutagenic call,[11],inactive; negative
same,mutagenic call,[5],inactive; negative
same,mutagenic call,[6],inactive; negative
same,mutagenic call,[7],inactive; negative
same,mutagenic call,[12],inactive; negative
same,mutagenic call,[8],inactive; negative
same,mutagenic call,[13],inactive; negative
same,mutagenic call,"Test System: AMES SALMONELLA TYPHIMURIUM, Strain/Indicator: TA1537, Metabolic Activation: HAMSTER, LIVER, S-9, AROCLOR 1254 (10 OR 30%), Method: PREINCUBATION",inactive; negative
same,mutagenic call,[9],inactive; negative
same,mutagenic call,"Test System: AMES SALMONELLA TYPHIMURIUM, Strain/Indicator: TA1537, Metabolic Activation: RAT, LIVER, S-9, AROCLOR 1254 (10 OR 30%), Method: PREINCUBATION",inactive; negative
O=S(=O)(O)OCc1cc2ccccc2c2ccc3ccccc3c12,mutagenic call,[4],active; positive
COC(=O)N/N=C/c1c[n+]([O-])c2ccccc2[n+]1[O-],mutagenic call,[4],active; positive
same,mutagenic call,"Test System: AMES SALMONELLA TYPHIMURIUM, Strain/Indicator: TA98, Metabolic Activation: S-9, Method: PREINCUBATION",active; positive
same,mutagenic call,"Test System: E. COLI, Strain/Indicator: WP2 UVRA (PKM101), Metabolic Activation: NONE",active; positive
same,mutagenic call,"Test System: E. COLI, Strain/Indicator: WP2 UVRA (PKM101), Metabolic Activation: S-9",active; positive
O=C(O)c1occ(-c2ccccc2)c1-c1ccccc1,mutagenic call,"Test System: AMES SALMONELLA TYPHIMURIUM, Strain/Indicator: TA98, Metabolic Activation: NONE, Method: STANDARD PLATE",inactive; negative
same,mutagenic call,"Test System: AMES SALMONELLA TYPHIMURIUM, Strain/Indicator: TA100, Metabolic Activation: NONE, Method: STANDARD PLATE",inactive; negative
